In patent publication US20250026759A1 (Merck Sharp & Dohme LLC, priority 2023, published 2025):

Tested on: PBMCs infected with VSV-G pseudotyped HIV virus (VSV-G/pNLG1-P2A-ΔEnv)
Experiment: cells
Format: cell-based, human
Conditions: Homo sapiens, PBMC, read-out: TACK EC50

| Compound | EC50 |
| --- | --- |
| COCc1cc(Cl)n(Cc2cc3c(cc2F)[C@@](C#CC2CC2)(C(C)(F)F)NC(=O)N3)n1 [Example 18, (S)-7-((5-chloro-3-(methoxymethyl)-1H-pyrazol-1-yl)methyl)-4-(cyclopropylethynyl)-4-(1,1-difluoroethyl)-6-fluoro-3,4-dihydroquinazolin-2(1H)-one] | 0.0466 µM |
| CC(F)(F)[C@@]1(C#CC2CC2)NC(=O)Nc2cc(Cn3ccc(Br)n3)c(F)cc21 [Example 19, (S)-7-((3-bromo-1H-pyrazol-1-yl)methyl)-4-(cyclopropylethynyl)-4-(1,1-difluoroethyl)-6-fluoro-3,4-dihydroquinazolin-2(1H)-one] | 0.0262 µM |
| CC(F)(F)[C@@]1(C#CC2CC2)NC(=O)Nc2cc(Cn3cncn3)c(F)cc21 [Example 20, (S)-7-((1H-1,2,4-triazol-1-yl)methyl)-4-(cyclopropylethynyl)-4-(1,1-difluoroethyl)-6-fluoro-3,4-dihydroquinazolin-2(1H)-one] | 0.0437 µM |
| O=C1Nc2cc(Cn3cc4cnccc4n3)c(F)cc2[C@@](C#CC2CC2)(C(F)(F)F)N1 [Example 21, (S)-7-((2H-pyrazolo[4,3-c]pyridin-2-yl)methyl)-4-(cyclopropylethynyl)-6-fluoro-4-(trifluoromethyl)-3,4-dihydroquinazolin-2(1H)-one] | 0.0134 µM |
| O=C1Nc2cc(Cn3c(=O)[nH]c4ccccc43)c(F)cc2[C@@](C#CC2CC2)(C(F)(F)F)N1 [Example 24, (S)-4-(cyclopropylethynyl)-6-fluoro-7-((2-oxo-2,3-dihydro-1H-benzo[d]imidazol-1-yl)methyl)-4-(trifluoromethyl)-3,4-dihydroquinazolin-2(1H)-one] | 0.0325 µM |
| O=C1Nc2cc(Cn3cc4cncnc4n3)c(F)cc2[C@@](C#CC2CC2)(C(F)(F)F)N1 [Example 27, (S)-7-((2H-pyrazolo[3,4-d]pyrimidin-2-yl)methyl)-4-(cyclopropylethynyl)-6-fluoro-4-(trifluoromethyl)-3,4-dihydroquinazolin-2(1H)-one] | 0.0826 µM |
| O=C1Nc2cc(Cn3cc4cccnc4n3)c(F)cc2[C@@](C#CC2CC2)(C(F)(F)F)N1 [Example 28, (S)-7-((2H-pyrazolo[3,4-b]pyridin-2-yl)methyl)-4-(cyclopropylethynyl)-6-fluoro-4-(trifluoromethyl)-3,4-dihydroquinazolin-2(1H)-one] | 0.104 µM |
| O=C1Nc2cc(CN3C(=O)CNC3=O)c(F)cc2[C@@](C#CC2CC2)(C(F)(F)F)N1 [Example 29, (S)-3-((4-(cyclopropylethynyl)-6-fluoro-2-oxo-4-(trifluoromethyl)-1,2,3,4-tetrahydroquinazolin-7-yl)methyl)imidazolidine-2,4-dione] | 0.0274 µM |
| COCc1ccn(Cc2cc3c(cc2F)[C@@](C#CC2CC2)(C(F)(F)F)NC(=O)N3)n1 [Example 30, (S)-4-(cyclopropylethynyl)-6-fluoro-7-((3-(methoxymethyl)-1H-pyrazol-1-yl)methyl)-4-(trifluoromethyl)-3,4-dihydroquinazolin-2(1H)-one] | 0.0365 µM |
| O=C1Nc2cc(Cn3cnc(CO)n3)c(F)cc2[C@@](C#CC2CC2)(C(F)(F)F)N1 [Example 31, (S)-4-(cyclopropylethynyl)-6-fluoro-7-((3-(hydroxymethyl)-1H-1,2,4-triazol-1-yl)methyl)-4-(trifluoromethyl)-3,4-dihydroquinazolin-2(1H)-one] | 0.0528 µM |
| Cc1nn(C)c(=O)n1Cc1cc2c(cc1F)[C@@](C#CC1CC1)(C(F)(F)F)NC(=O)N2 [Example 32, (S)-4-(cyclopropylethynyl)-7-((1,3-dimethyl-5-oxo-1,5-dihydro-4H-1,2,4-triazol-4-yl)methyl)-6-fluoro-4-(trifluoromethyl)-3,4-dihydroquinazolin-2(1H)-one] | 0.0144 µM |
| Cc1n[nH]c(=O)n1Cc1cc2c(cc1F)[C@@](C#CC1CC1)(C(F)(F)F)NC(=O)N2 [Example 33, (S)-4-(cyclopropylethynyl)-6-fluoro-7-((3-methyl-5-oxo-1,5-dihydro-4H-1,2,4-triazol-4-yl)methyl)-4-(trifluoromethyl)-3,4-dihydroquinazolin-2(1H)-one] | 0.0236 µM |
| O=C1Nc2cc(Cn3cn[nH]c3=O)c(F)cc2[C@@](C#CC2CC2)(C(F)(F)F)N1 [Example 34, (S)-4-(cyclopropylethynyl)-6-fluoro-7-((5-oxo-1,5-dihydro-4H-1,2,4-triazol-4-yl)methyl)-4-(trifluoromethyl)-3,4-dihydroquinazolin-2(1H)-one] | 0.0446 µM |
| CC(F)(F)[C@@]1(C#CC2CC2)NC(=O)Nc2cc(Cn3c(Cl)n[nH]c3=O)c(F)cc21 [Example 35, (S)-7-((3-chloro-5-oxo-1,5-dihydro-4H-1,2,4-triazol-4-yl)methyl)-4-(cyclopropylethynyl)-4-(1,1-difluoroethyl)-6-fluoro-3,4-dihydroquinazolin-2(1H)-one] | 0.0109 µM |
| O=C1Nc2cc(Cn3c(Cl)n[nH]c3=O)c(F)cc2[C@@](C#CC2CC2)(C(F)(F)F)N1 [Example 36, (S)-7-((3-chloro-5-oxo-1,5-dihydro-4H-1,2,4-triazol-4-yl)methyl)-4-(cyclopropylethynyl)-6-fluoro-4-(trifluoromethyl)-3,4-dihydroquinazolin-2(1H)-one] | 0.0133 µM |
| O=C1Nc2cc(Cn3c(C4CC4)n[nH]c3=O)c(F)cc2[C@@](C#CC2CC2)(C(F)(F)F)N1 [Example 37, (S)-7-((3-cyclopropyl-5-oxo-1,5-dihydro-4H-1,2,4-triazol-4-yl)methyl)-4-(cyclopropylethynyl)-6-fluoro-4-(trifluoromethyl)-3,4-dihydroquinazolin-2(1H)-one] | 0.0429 µM |
| Cc1n[nH]c(=O)n1Cc1cc2c(cc1F)[C@@](C#CC1CC1)(C(C)(F)F)NC(=O)N2 [Example 38, (S)-4-(cyclopropylethynyl)-4-(1,1-difluoroethyl)-6-fluoro-7-((3-methyl-5-oxo-1,5-dihydro-4H-1,2,4-triazol-4-yl)methyl)-3,4-dihydroquinazolin-2(1H)-one] | 0.023 µM |
| O=C1Nc2cc(Cn3c(=O)[nH]c4cnccc43)c(F)cc2[C@@](C#CC2CC2)(C(F)(F)F)N1 [Example 39, (S)-4-(cyclopropylethynyl)-6-fluoro-7-((2-oxo-2,3-dihydro-1H-imidazo[4,5-c]pyridin-1-yl)methyl)-4-(trifluoromethyl)-3,4-dihydroquinazolin-2(1H)-one] | 0.0137 µM |
| CC(F)(F)[C@@]1(C#CC2CC2)NC(=O)Nc2cc(Cn3ccc4c3C(=O)NC4)c(F)cc21 [Example 40, (S)-4-(cyclopropylethynyl)-4-(1,1-difluoroethyl)-6-fluoro-7-((6-oxo-5,6-dihydropyrrolo[3,4-b]pyrrol-1(4H)-yl)methyl)-3,4-dihydroquinazolin-2(1H)-one] | 0.0059 µM |
| O=C1Nc2cc(Cn3c(=O)[nH]c4ccncc43)c(F)cc2[C@@](C#CC2CC2)(C(F)(F)F)N1 [Example 41, (S)-4-(cyclopropylethynyl)-6-fluoro-7-((2-oxo-1,2-dihydro-3H-imidazo[4,5-c]pyridin-3-yl)methyl)-4-(trifluoromethyl)-3,4-dihydroquinazolin-2(1H)-one] | 0.0261 µM |
| CN1C(=O)Nc2cc(CN3C(=O)CNC3=O)c(F)cc2[C@@]1(C#CC1CC1)C(F)(F)F [Example 42, (S)-3-((4-(cyclopropylethynyl)-6-fluoro-3-methyl-2-oxo-4-(trifluoromethyl)-1,2,3,4-tetrahydroquinazolin-7-yl)methyl)imidazolidine-2,4-dione] | 0.0388 µM |
| CC(F)(F)[C@@]1(C#CC2CC2)NC(=O)Nc2cc(Cn3ccc(N)n3)c(F)cc21 [Example 43, (S)-7-((3-amino-1H-pyrazol-1-yl)methyl)-4-(cyclopropylethynyl)-4-(1,1-difluoroethyl)-6-fluoro-3,4-dihydroquinazolin-2(1H)-one] | 0.0085 µM |
| Cc1cc(N)nn1Cc1cc2c(cc1F)[C@@](C#CC1CC1)(C(C)(F)F)NC(=O)N2 [Example 44, (S)-7-((3-amino-5-methyl-1H-pyrazol-1-yl)methyl)-4-(cyclopropylethynyl)-4-(1,1-difluoroethyl)-6-fluoro-3,4-dihydroquinazolin-2(1H)-one] | 0.0195 µM |
| Cc1cn(Cc2cc3c(cc2F)[C@@](C#CC2CC2)(C(C)(F)F)NC(=O)N3)nc1N [Example 45, (S)-7-((3-amino-4-methyl-1H-pyrazol-1-yl)methyl)-4-(cyclopropylethynyl)-4-(1,1-difluoroethyl)-6-fluoro-3,4-dihydroquinazolin-2(1H)-one] | 0.0131 µM |
| Nc1ccn(Cc2cc3c(cc2F)[C@@](C#CC2CC2)(C(F)(F)C2CC2)NC(=O)N3)n1 [Example 46, (S)-7-((3-amino-1H-pyrazol-1-yl)methyl)-4-(cyclopropyldifluoromethyl)-4-(cyclopropylethynyl)-6-fluoro-3,4-dihydroquinazolin-2(1H)-one] | 0.0267 µM |
| CC(F)(F)[C@@]1(C#CC2CC2)NC(=O)Nc2cc(Cn3ccc(CCO)n3)c(F)cc21 [Example 47, (S)-4-(cyclopropylethynyl)-4-(1,1-difluoroethyl)-6-fluoro-7-((3-(2-hydroxyethyl)-1H-pyrazol-1-yl)methyl)-3,4-dihydroquinazolin-2(1H)-one] | 0.0377 µM |
| CC(F)(F)[C@@]1(C#CC2CC2)NC(=O)Nc2cc(Cn3ccc(CO)n3)c(Cl)cc21 [Example 48, (S)-6-chloro-4-(cyclopropylethynyl)-4-(1,1-difluoroethyl)-7-((3-(hydroxymethyl)-1H-pyrazol-1-yl)methyl)-3,4-dihydroquinazolin-2(1H)-one] | 0.0296 µM |
| CC(F)(F)[C@@]1(C#CC2CC2)NC(=O)Nc2cc(Cn3ccnc3CO)c(F)cc21 [Example 49, (S)-4-(cyclopropylethynyl)-4-(1,1-difluoroethyl)-6-fluoro-7-((2-(hydroxymethyl)-1H-imidazol-1-yl)methyl)-3,4-dihydroquinazolin-2(1H)-one] | 0.0418 µM |
| CC(F)(F)[C@@]1(C#CC2CC2)NC(=O)Nc2cc(Cn3ccc(-c4cc[nH]n4)n3)c(F)cc21 [Example 52, (S)-7-(1H,1′H-[3,3′-bipyrazol]-1-ylmethyl)-4-(cyclopropylethynyl)-4-(1,1-difluoroethyl)-6-fluoro-3,4-dihydroquinazolin-2(1H)-one] | 0.0283 µM |
